We go through eleven compounds from ChEMBL document CHEMBL1201862, “PubChem BioAssay data set” (2004).

Test systems include HCC 2998; OVCAR-3; HCT-116; Hs-578T; A498; SF-295; SN12C; SNB-75; UACC-62; A549; ACHN; SNB-19; SK-MEL-2; OVCAR-8; CCRF-CEM; NCI/ADR-RES; NCI-H460; MOLT-4; TK-10.
Common to all, as to experiment: growth of human tumour cells (NCI), 48 h

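Interpolation was linear, between the two tested concentrations surrounding the appropriate level; five concentrations were tested over 48 hours in 96-well plates. Here, GI50 denotes the concentration required for 50% inhibition of growth.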 Calls of active or inactive are those of the source. Cut-off read from the data, not from the text of the source: active = GI50 up to about 1.1 µM and inactive = higher. Where a SMILES comes first, the peptide text is derived from it. [ ]: non-standard residue; d: D form. pGlu = O=C1CC[CH](C(=O)O)N1

Consider `O=CC(O)C(O)C1OC(=O)c2cc(O)c(O)c(O)c2C2=C(O)C(O)=C3OC(=O)c4c(c(O)c(O)c5c4C3C2C(=O)O5)-c2c(cc(O)c(O)c2O)C(=O)OCC1O` (configuration not stated), for which the GI50 in the assay on HCC 2998 is 24.8 µM (inactive); in the assay on OVCAR-3, 18.2 µM (inactive); in the assay on HCT-116, 15.4 µM (inactive); with Hs-578T, 67.1 µM (inactive); with A498, 44.9 µM (inactive); with SF-295, 26.4 µM (inactive). Further, the GI50 with SN12C is 15.2 µM (inactive); with SNB-75, 27.4 µM (inactive); in the assay with UACC-62 it was 29.2 µM (inactive); in the assay with A549 it was 24.5 µM (inactive); in the assay on ACHN it was 44.2 µM (inactive); with SNB-19, 57.8 µM (inactive). Also, the GI50 is 33 µM (inactive) in the assay with SK-MEL-2; 20.1 µM (inactive) with OVCAR-8; 20.4 µM (inactive) in the assay on CCRF-CEM; 88.5 µM (inactive) with NCI/ADR-RES; 26.2 µM (inactive) in the assay with NCI-H460; 20.7 µM (inactive) in the assay with MOLT-4.
Turning to `Cc1ccc(-c2cc(-c3ccco3)c(C#N)c(=S)[nH]2)cc1`, the GI50 in the assay on HCC 2998 was 67.5 µM (inactive); with OVCAR-3, 61.7 µM (inactive); in the assay with HCT-116, 50.5 µM (inactive); in the assay with Hs-578T, 38.5 µM (inactive); in the assay on A498, 36.3 µM (inactive); in the assay with SF-295, 38.7 µM (inactive). Besides, the GI50 was 87.9 µM (inactive) in the assay with SN12C; 49.8 µM (inactive) in the assay on SNB-75; 26.8 µM (inactive) in the assay on UACC-62; 43.9 µM (inactive) with A549; 35.6 µM (inactive) in the assay on ACHN; 32.1 µM (inactive) in the assay on SNB-19. Also, the GI50 in the assay on TK-10 was > 100 µM (inactive); with OVCAR-8 it was 68.1 µM (inactive); with CCRF-CEM, 38.3 µM (inactive); with NCI/ADR-RES, > 100 µM (inactive); in the assay with NCI-H460, 46.2 µM (inactive); with MOLT-4, 32.2 µM (inactive).
Take `CSc1cc(Cl)c(C)cc1S(=O)(=O)NC(=O)NNc1ccc(F)c(Cl)c1`: the GI50 with HCC 2998, with OVCAR-3, with HCT-116, with Hs-578T, in the assay on A498 and in the assay on SF-295 was > 100 µM (inactive) throughout. In addition, the GI50 in the assay with SN12C, in the assay with SNB-75, in the assay on A549, in the assay with ACHN, with SNB-19 and with SK-MEL-2 was > 100 µM (inactive) in each case. The GI50 in the assay on OVCAR-8 was > 100 µM (inactive); with CCRF-CEM it was 54.3 µM (inactive); with NCI/ADR-RES it was > 100 µM (inactive); in the assay with NCI-H460 it was > 100 µM (inactive); in the assay with MOLT-4 it was 45.7 µM (inactive).
On to `COc1cc(OC)cc(N(C)Cc2cnc3nc(N)nc(N)c3c2C)c1`, for which the GI50 in the assay on HCC 2998 was 3.52 µM (inactive); in the assay with OVCAR-3, 9.66 µM (inactive); in the assay on HCT-116, 0.358 µM (active); in the assay with Hs-578T it was > 68.5 µM (inactive); with A498, 18.7 µM (inactive); in the assay on SF-295, 0.535 µM (active). Besides, the GI50 in the assay on SN12C is 0.929 µM (active); with SNB-75, 0.0571 µM (active); in the assay on UACC-62, 0.719 µM (active); in the assay with A549, 0.421 µM (active); in the assay with ACHN it was 0.746 µM (active); in the assay with SNB-19, 12.9 µM (inactive). For the same compound, the GI50 was > 51.5 µM (inactive) in the assay with SK-MEL-2; 0.741 µM (active) in the assay on OVCAR-8; 2.47 µM (inactive) in the assay with CCRF-CEM; 5.65 µM (inactive) in the assay on NCI/ADR-RES; 0.474 µM (active) in the assay with NCI-H460; 0.741 µM (active) in the assay on MOLT-4.
`Cc1ccc(S(=O)(=O)N2CCC[C@@H]2C(=O)O[C@@H]2CCC3CC=CC32)cc1` (some centres not stated): the GI50 in the assay with HCC 2998 is 31.5 µM (inactive); with OVCAR-3, 12.1 µM (inactive); in the assay with HCT-116, 30.4 µM (inactive); with Hs-578T it was 33.3 µM (inactive); in the assay on A498, 24.8 µM (inactive); in the assay with SF-295, 36.8 µM (inactive). Besides, the GI50 is 28.1 µM (inactive) in the assay on SN12C; 26.1 µM (inactive) in the assay on SNB-75; 27.9 µM (inactive) in the assay on UACC-62; 34.5 µM (inactive) in the assay on A549; 38.5 µM (inactive) in the assay with ACHN; 34.4 µM (inactive) in the assay with SNB-19. Further, the GI50 was 42.5 µM (inactive) in the assay on TK-10; 34.4 µM (inactive) in the assay on OVCAR-8; 24.8 µM (inactive) in the assay with CCRF-CEM; 19.3 µM (inactive) with NCI/ADR-RES; 35.6 µM (inactive) in the assay with NCI-H460; 17.6 µM (inactive) in the assay with MOLT-4.
In the case of `CN(C)c1ccc(/C(Br)=C2\OC(=O)c3ccccc32)cc1`, the GI50 in the assay with HCC 2998 is > 100 µM (inactive); with HCT-116, > 100 µM (inactive); in the assay with Hs-578T it was > 100 µM (inactive); in the assay with A498 it was > 100 µM (inactive); in the assay on SF-295 it was 76.2 µM (inactive); in the assay on SN12C, > 100 µM (inactive). Also, the GI50 is 80.7 µM (inactive) with SNB-75; > 100 µM (inactive) with UACC-62; > 100 µM (inactive) in the assay with A549; > 100 µM (inactive) with ACHN; > 100 µM (inactive) with SNB-19; 92.9 µM (inactive) with SK-MEL-2. For the same compound, the GI50 with TK-10 was > 100 µM (inactive); in the assay with OVCAR-8, > 100 µM (inactive); in the assay on CCRF-CEM it was 51.4 µM (inactive); with NCI/ADR-RES, 31.8 µM (inactive); in the assay on NCI-H460, > 100 µM (inactive); in the assay with MOLT-4 it was 37.2 µM (inactive).
`Cc1cc(N2CCOCC2)nc2ccc(Cc3ccc4nc(N5CCOCC5)cc(C)c4c3)cc12`: the GI50 with HCC 2998 was 15.6 µM (inactive); in the assay with OVCAR-3 it was 33.3 µM (inactive); with HCT-116, 21.9 µM (inactive); in the assay on Hs-578T it was > 100 µM (inactive); in the assay on A498, 59.4 µM (inactive); with SF-295, 78.7 µM (inactive). Also, the GI50 is 55.8 µM (inactive) in the assay on SN12C; 35.2 µM (inactive) in the assay on SNB-75; 45.8 µM (inactive) in the assay on UACC-62; 41.7 µM (inactive) in the assay with A549; 48.5 µM (inactive) in the assay on ACHN; 49.9 µM (inactive) in the assay with SNB-19. In addition, the GI50 in the assay with SK-MEL-2 is 63.5 µM (inactive); in the assay on TK-10 it was 29.4 µM (inactive); with OVCAR-8 it was 57.5 µM (inactive); in the assay on NCI/ADR-RES it was 41.8 µM (inactive); with NCI-H460 it was 26.7 µM (inactive); with MOLT-4 it was 28.8 µM (inactive).
As for `CCOC(=O)Cc1nc2sc(S(N)(=O)=O)nn2c1Br`, the GI50 with HCC 2998 was 22.2 µM (inactive); in the assay on OVCAR-3, 36.6 µM (inactive); in the assay on HCT-116, 31 µM (inactive); in the assay with Hs-578T it was > 100 µM (inactive); with A498, 26.5 µM (inactive); with SF-295, > 100 µM (inactive). Besides, the GI50 is 23.5 µM (inactive) in the assay on SN12C; 32.1 µM (inactive) with SNB-75; 16.6 µM (inactive) in the assay on UACC-62; 33 µM (inactive) in the assay on A549; 27.2 µM (inactive) with ACHN; 87.7 µM (inactive) in the assay on SNB-19. The GI50 in the assay with SK-MEL-2 was 28.5 µM (inactive); in the assay with TK-10, 35.1 µM (inactive); in the assay on OVCAR-8 it was 21.3 µM (inactive); in the assay on CCRF-CEM, < 0.01 µM (active); in the assay on NCI/ADR-RES, 47.4 µM (inactive); with NCI-H460, 32 µM (inactive).
In the case of `CN(C)c1ccc(/C=N/NC(=O)c2cnc3ccccc3c2)cc1`, the GI50 is 42.1 µM (inactive) in the assay with HCC 2998; > 100 µM (inactive) with OVCAR-3; > 100 µM (inactive) with HCT-116; 25.5 µM (inactive) in the assay on Hs-578T; > 100 µM (inactive) with A498; 71.4 µM (inactive) with SF-295. The GI50 with SN12C is > 100 µM (inactive); in the assay with SNB-75, 21.9 µM (inactive); in the assay on UACC-62 it was > 100 µM (inactive); with A549 it was > 100 µM (inactive); in the assay with ACHN, > 100 µM (inactive); in the assay with SNB-19 it was 48 µM (inactive). Further, the GI50 was > 100 µM (inactive) in the assay on SK-MEL-2; 26.3 µM (inactive) in the assay with TK-10; 98.2 µM (inactive) with OVCAR-8; > 100 µM (inactive) with NCI/ADR-RES; > 100 µM (inactive) in the assay on NCI-H460.
Regarding `COc1ccc(CCNC(=O)[C@H]2CCCC[C@@H]2CCO)cc1OC`, the GI50 in the assay with HCC 2998, in the assay with OVCAR-3, in the assay with HCT-116, in the assay on Hs-578T, in the assay with A498 and in the assay on SF-295 was > 100 µM (inactive) throughout. The GI50 with SN12C is > 100 µM (inactive); with SNB-75, 88.7 µM (inactive); in the assay with UACC-62, > 100 µM (inactive); in the assay with A549, > 100 µM (inactive); in the assay on ACHN, > 100 µM (inactive); in the assay with SNB-19, > 100 µM (inactive). Further, the GI50 in the assay on SK-MEL-2, in the assay on TK-10, with OVCAR-8, in the assay with CCRF-CEM, with NCI/ADR-RES and in the assay with NCI-H460 was > 100 µM (inactive) each time. In addition, in the assay on MOLT-4, the GI50 was > 100 µM (inactive).
Consider `CC(NC(=O)C1CCC(=O)N1)C(=O)N1CCCC1C(N)=O` (stereo not drawn) ([pGlu]-Ala-Pro-NH2; configuration not given here), for which the GI50 in the assay with HCC 2998 was > 100 µM (inactive); in the assay on OVCAR-3 it was > 100 µM (inactive); in the assay with HCT-116, > 100 µM (inactive); with Hs-578T, > 100 µM (inactive); with A498, 31.5 µM (inactive); with SF-295 it was > 100 µM (inactive). Besides, the GI50 with SN12C, with SNB-75, in the assay with UACC-62, in the assay with A549, in the assay on ACHN and in the assay with SNB-19 was > 100 µM (inactive) in each case. Further, the GI50 in the assay with TK-10, in the assay on OVCAR-8, with CCRF-CEM, in the assay on NCI/ADR-RES, in the assay on NCI-H460 and with MOLT-4 was > 100 µM (inactive) throughout.
